# Measured values: ChEMBL document CHEMBL1156829 (Proc Natl Acad Sci U S A, 2008)
# How the values were obtained:
# [1] = NOVARTIS: Cytotoxicity against human hepatocellular carcinoma cell line (Huh7); assay type: toxicity, cell-based, Huh-7; settings: Huh7 cells (hepatocellular carcinoma cell line)
# Plasmodium falciparum [2] = experiment: NOVARTIS: Inhibition of Plasmodium falciparum 3D7 (drug-susceptible) proliferation in erythrocyte-based infection assay; assay type: functional, organism-based; settings: Plasmodium falciparum, 3D7
# Plasmodium falciparum [3] = experiment: NOVARTIS: Inhibition of Plasmodium falciparum W2 (drug-resistant) proliferation in erythrocyte-based infection assay; assay type: functional, organism-based; settings: Plasmodium falciparum, W2; read-out: EC50
structure (smiles),measurement,setting,value
O=C(Nc1ccc(Cl)c(Cl)c1)Nc1ccc(Cl)c(Cl)c1,CC50,[1],20.2 µM
same,EC50,Plasmodium falciparum [2],1.03 µM
same,EC50,Plasmodium falciparum [3],0.46 µM
Cc1ccc(S(=O)(=O)NC(=O)Nc2ccc(N(C)C)cc2)cc1,CC50,[1],20.4 µM
same,EC50,Plasmodium falciparum [2],0.324 µM
same,EC50,Plasmodium falciparum [3],0.467 µM
CCN1/C(=C/c2sc3ccccc3[n+]2CC)C=Cc2cc(NC(C)=O)ccc21,CC50,[1],> 10 µM
same,EC50,Plasmodium falciparum [2],0.255 µM
same,EC50,Plasmodium falciparum [3],0.225 µM
COc1ccc(OCC(=O)Nc2cccc(NC(=O)COc3ccc(OC)cc3)n2)cc1,CC50,[1],> 100 µM
same,EC50,Plasmodium falciparum [2],6.84 µM
same,EC50,Plasmodium falciparum [3],2.29 µM
O=C(c1ccc(-n2c(SCc3ccc(Cl)cc3)nc3ccccc3c2=O)cc1)N1CCOCC1,CC50,[1],> 100 µM
same,EC50,Plasmodium falciparum [2],> 12.5 µM
same,EC50,Plasmodium falciparum [3],2.28 µM
Nc1ccc(-c2nc3cc(-c4ccc5[nH]c(-c6ccc(N)cc6)nc5c4)ccc3[nH]2)cc1,CC50,[1],> 10 µM
same,EC50,Plasmodium falciparum [2],0.579 µM
same,EC50,Plasmodium falciparum [3],0.234 µM
N=c1n(CCN2CCCC2)c2ccccc2n1CC(O)c1ccc(Cl)c(Cl)c1 (configuration not stated),CC50,[1],10.9 µM
same,EC50,Plasmodium falciparum [2],0.083 µM
same,EC50,Plasmodium falciparum [3],0.257 µM
CCOC(=O)C1=C(c2ccccc2)N=c2sc(=Cc3cc(C)n(-c4ccc(F)cc4)c3C)c(=O)n2C1c1cccc(OC)c1OC (configuration not stated),CC50,[1],> 100 µM
same,EC50,Plasmodium falciparum [2],2.33 µM
same,EC50,Plasmodium falciparum [3],2.28 µM
CCOC(=O)NN=CC=NNC(=O)OCC,CC50,[1],> 10 µM
same,EC50,Plasmodium falciparum [2],0.199 µM
same,EC50,Plasmodium falciparum [3],0.235 µM
CCC(c1nc2ccccc2c(=O)n1-c1ccc(Cl)cc1C)N(CCc1ccccc1)C(=O)c1cccc(OC)c1 (configuration not stated),CC50,[1],> 10 µM
same,EC50,Plasmodium falciparum [2],0.519 µM
same,EC50,Plasmodium falciparum [3],0.232 µM
COc1ccc(-c2nc(NC(=O)CS(=O)(=O)c3ccccc3)sc2C)cc1,CC50,[1],> 100 µM
same,EC50,Plasmodium falciparum [2],0.505 µM
same,EC50,Plasmodium falciparum [3],2.31 µM
CN1CCN(NC=C2C(=O)N(c3nc4ccccc4s3)N=C2c2ccccc2)CC1,CC50,[1],> 100 µM
same,EC50,Plasmodium falciparum [2],> 12.5 µM
same,EC50,Plasmodium falciparum [3],2.3 µM
COc1ccc(C=C2SC(=N)N(c3ccc4c(c3)OCO4)C2=O)cc1OC,CC50,[1],> 100 µM
same,EC50,Plasmodium falciparum [2],> 9.75 µM
same,EC50,Plasmodium falciparum [3],2.28 µM
COc1ccc(-c2cc(C3CCN(c4nc(N)c5cc(OC)c(OC)cc5n4)CC3)n[nH]2)cc1OC,CC50,[1],16.4 µM
same,EC50,Plasmodium falciparum [2],0.202 µM
same,EC50,Plasmodium falciparum [3],0.379 µM
O=[N+]([O-])c1ccc(-c2ccc(C=NNc3ccccn3)o2)cc1,CC50,[1],> 100 µM
same,EC50,Plasmodium falciparum [2],2.43 µM
same,EC50,Plasmodium falciparum [3],2.29 µM
COc1ccc([N+](=O)[O-])cc1-c1ccc(C=C(C#N)c2nn(CCO)c(N)c2C#N)o1,CC50,[1],> 100 µM
same,EC50,Plasmodium falciparum [2],> 12.5 µM
same,EC50,Plasmodium falciparum [3],2.29 µM
C=CCNC(=O)c1cc2c(=O)n3ccccc3nc2n(CCc2ccccc2)c1=N,CC50,[1],> 100 µM
same,EC50,Plasmodium falciparum [2],1.53 µM
same,EC50,Plasmodium falciparum [3],2.31 µM
Brc1ccc(-c2n(Cc3ccccc3)c3ccccc3[n+]2Cc2ccccc2)o1,CC50,[1],11 µM
same,EC50,Plasmodium falciparum [2],0.167 µM
same,EC50,Plasmodium falciparum [3],0.26 µM
COc1ccccc1/C=C/C1=NC(=C\c2ccc(SC)cc2)/C(=O)O1,CC50,[1],> 10 µM
same,EC50,Plasmodium falciparum [2],> 1.25 µM
same,EC50,Plasmodium falciparum [3],0.228 µM
Clc1ccccc1-c1nc([P+](c2ccccc2)(c2ccccc2)c2ccccc2)c(N2CCOCC2)o1,CC50,[1],10.1 µM
same,EC50,Plasmodium falciparum [2],0.35 µM
same,EC50,Plasmodium falciparum [3],0.238 µM
FC(F)(F)c1ccccc1CN1CCc2nc(N3CCCCC3)sc2C1,CC50,[1],> 10 µM
same,EC50,Plasmodium falciparum [2],0.253 µM
same,EC50,Plasmodium falciparum [3],0.228 µM
Cc1oc(-c2cccs2)nc1CN1CCC(CO)(CCOc2ccccc2)CC1,CC50,[1],> 100 µM
same,EC50,Plasmodium falciparum [2],8.47 µM
same,EC50,Plasmodium falciparum [3],2.35 µM
O=C(Nc1ccc(C2=NCCN2)c(Cl)c1)c1ccc(C(=O)Nc2ccc(C3=NCCN3)c(Cl)c2)cc1,CC50,[1],> 10 µM
same,EC50,Plasmodium falciparum [2],0.554 µM
same,EC50,Plasmodium falciparum [3],0.234 µM
O=c1ccc2cc(Cl)c(O)c(Cl)c2o1,CC50,[1],> 10 µM
same,EC50,Plasmodium falciparum [2],> 1.25 µM
same,EC50,Plasmodium falciparum [3],> 0.234 µM
CCCCCCCCCC[n+]1c(C)n(CC)c2cc(Cl)c(Cl)cc21,CC50,[1],21 µM
same,EC50,Plasmodium falciparum [2],0.613 µM
same,EC50,Plasmodium falciparum [3],0.49 µM
COc1cccc(NCC(O)Cn2c3ccc(Cl)cc3c3cc(Cl)ccc32)c1 (configuration not stated),CC50,[1],51.3 µM
same,EC50,Plasmodium falciparum [2],2.13 µM
same,EC50,Plasmodium falciparum [3],1.19 µM
CCN1CCC(NC2CCCc3c2[nH]c2ccc([N+](=O)[O-])cc32)CC1 (configuration not stated),CC50,[1],14.5 µM
same,EC50,Plasmodium falciparum [2],0.497 µM
same,EC50,Plasmodium falciparum [3],0.337 µM
O=C(C[n+]1cc(-c2ccc(F)cc2)n2c1CCC2)Nc1ccc(Cl)cc1,CC50,[1],> 100 µM
same,EC50,Plasmodium falciparum [2],2.88 µM
same,EC50,Plasmodium falciparum [3],2.3 µM
CC1CCN(c2ncnc3sc4c(c23)CCC(C)C4)CC1 (configuration not stated),CC50,[1],> 100 µM
same,EC50,Plasmodium falciparum [2],1.05 µM
same,EC50,Plasmodium falciparum [3],2.3 µM
O=C(NCc1ccc(Cl)cc1)C1CNCC1c1ccc(C(F)(F)F)cc1 (configuration not stated),CC50,[1],18.2 µM
same,EC50,Plasmodium falciparum [2],0.392 µM
same,EC50,Plasmodium falciparum [3],0.412 µM
COc1ccccc1CNC(=O)C1c2ccccc2C(=O)N2CCc3ccccc3C12 (configuration not stated),CC50,[1],> 100 µM
same,EC50,Plasmodium falciparum [2],4.9 µM
same,EC50,Plasmodium falciparum [3],2.25 µM
Cc1ccc2nc3nc4c(C)cccc4c(N)c3cc2c1,CC50,[1],6.94 µM
same,EC50,Plasmodium falciparum [2],0.102 µM
same,EC50,Plasmodium falciparum [3],0.157 µM
Oc1ccc(Cl)cc1C1CC(c2ccc(Cl)cc2)=NC(c2ccc(Cl)cc2)N1 (configuration not stated),CC50,[1],34.7 µM
same,EC50,Plasmodium falciparum [2],0.813 µM
same,EC50,Plasmodium falciparum [3],0.783 µM
CC(=O)Nc1cccc(-c2cncc(-c3ccc(C(=O)O)cc3)n2)c1,CC50,[1],> 100 µM
same,EC50,Plasmodium falciparum [2],1.15 µM
same,EC50,Plasmodium falciparum [3],2.25 µM
CC(=O)NC(=Cc1ccc(OC(F)F)cc1)C(=O)O,CC50,[1],> 100 µM
same,EC50,Plasmodium falciparum [2],> 12.5 µM
same,EC50,Plasmodium falciparum [3],2.27 µM
Cc1cc(Nc2ccc(N(C)C)cc2)n2ncnc2n1,CC50,[1],> 100 µM
same,EC50,Plasmodium falciparum [2],6 µM
same,EC50,Plasmodium falciparum [3],2.27 µM
CN(C)CCNc1ncnc2c1[nH]c1ccc(Br)cc12,CC50,[1],21.1 µM
same,EC50,Plasmodium falciparum [2],0.1 µM
same,EC50,Plasmodium falciparum [3],0.476 µM
Cc1cccc(CCNc2cc(C)nc3nc(C)nn23)c1,CC50,[1],> 100 µM
same,EC50,Plasmodium falciparum [2],2.42 µM
same,EC50,Plasmodium falciparum [3],2.29 µM
Cc1ccc(-c2nnc(SCCCC(=O)NC(Cc3ccccc3)c3ccccc3)n2-c2cccc(Cl)c2)cc1 (configuration not stated),CC50,[1],> 27.6 µM
same,EC50,Plasmodium falciparum [2],> 12.5 µM
same,EC50,Plasmodium falciparum [3],0.621 µM
CC[C@@]1(O)C[C@H](O[C@@H]2CC(N(C)C)[C@@H](O[C@@H]3C[C@@H](O)[C@@H](O[C@@H]4CCC(=O)[C@@H](C)O4)C(C)O3)[C@@H](C)O2)c2c(cc3c(c2O)C(=O)c2c(O)ccc(O)c2C3=O)[C@H]1C(=O)OC (some centres not stated),CC50,[1],3.37 µM
same,EC50,Plasmodium falciparum [2],0.0877 µM
same,EC50,Plasmodium falciparum [3],0.0792 µM
CC(=O)Nc1nc(C)c(-c2csc(Nc3ccc(Br)cc3)n2)s1,CC50,[1],38.1 µM
same,EC50,Plasmodium falciparum [2],0.696 µM
same,EC50,Plasmodium falciparum [3],0.859 µM
CC(C)CC(=O)Nc1nnc(-c2ccc(Br)cc2)s1,CC50,[1],> 100 µM
same,EC50,Plasmodium falciparum [2],> 9.04 µM
same,EC50,Plasmodium falciparum [3],2.33 µM
COc1ccc(Nc2ccccc2NC(=O)c2cccc(N(C)C)c2)cc1,CC50,[1],> 100 µM
same,EC50,Plasmodium falciparum [2],2.45 µM
same,EC50,Plasmodium falciparum [3],2.29 µM
Cn1nc(-c2ccccc2)c2c(C(=O)C(F)(F)F)cc(C(=O)C(F)(F)F)c-2c1-c1ccccc1,CC50,[1],> 100 µM
same,EC50,Plasmodium falciparum [2],8.23 µM
same,EC50,Plasmodium falciparum [3],2.33 µM
CCCCOc1ccc(NC2=NC3(CCCC3)NC(N)=N2)cc1,CC50,[1],> 100 µM
same,EC50,Plasmodium falciparum [2],1.09 µM
same,EC50,Plasmodium falciparum [3],2.33 µM
COC(=O)c1ccc(Nc2nc(NCc3ccco3)c3ccccc3n2)cc1,CC50,[1],18.8 µM
same,EC50,Plasmodium falciparum [2],0.279 µM
same,EC50,Plasmodium falciparum [3],0.433 µM
Cc1ccc(C(=O)N(C)CCCNc2ccnc3cc(Cl)ccc23)cc1,CC50,[1],5.37 µM
same,EC50,Plasmodium falciparum [2],0.141 µM
same,EC50,Plasmodium falciparum [3],0.122 µM
CCN(CC)CCNc1nc2cc(OC)c(OC)cc2c2nc(-c3ccccc3)nn12,CC50,[1],77.2 µM
same,EC50,Plasmodium falciparum [2],1.67 µM
same,EC50,Plasmodium falciparum [3],1.8 µM
CN(C)c1ccc(N=Cc2ccc(N3CCOCC3)cc2)cc1,CC50,[1],> 10 µM
same,EC50,Plasmodium falciparum [2],0.175 µM
same,EC50,Plasmodium falciparum [3],0.235 µM
OCCc1cn(-c2ccccc2)c2ccccc12,CC50,[1],> 10 µM
same,EC50,Plasmodium falciparum [2],0.717 µM
same,EC50,Plasmodium falciparum [3],0.226 µM
COC(=O)C1=C(C)N(C)C(C)=C(C(=O)OC)C1c1ccc([N+](=O)[O-])cc1,CC50,[1],> 100 µM
same,EC50,Plasmodium falciparum [2],0.633 µM
same,EC50,Plasmodium falciparum [3],2.26 µM
O=C(C[n+]1cc(-c2ccccc2)n2c1CCC2)c1ccc(C2CCCCC2)cc1,CC50,[1],17.1 µM
same,EC50,Plasmodium falciparum [2],0.312 µM
same,EC50,Plasmodium falciparum [3],0.393 µM
CC1(C)CC(NC(=O)Cc2ccc(Cl)cc2)CC(C)(C)N1,CC50,[1],> 100 µM
same,EC50,Plasmodium falciparum [2],> 12.5 µM
same,EC50,Plasmodium falciparum [3],2.3 µM
COc1ccc(/C=C2\SC(=Nc3ccccc3)NC2=O)cc1,CC50,[1],> 10 µM
same,EC50,Plasmodium falciparum [2],0.342 µM
same,EC50,Plasmodium falciparum [3],0.233 µM
